From patent US20240025922A1, “TETRAHYDROPYRIDO[3,4-d]PYRIMIDINES AS HPK1 INHIBITORS” (Merck Patent GmbH, priority 2022, published 2024) come the findings set out here.

As a reminder, the IC50 is the point on the concentration scale where inhibition reaches its midpoint.

Assay [1] addresses HPK1 (SLP76 phosphorylation at Ser376 in Jurkat and EL-4 cells) (Homo sapiens, UniProt Q92918). It is filed as cell-based. In a few lines: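 Jurkat (human) and EL-4 (mouse) cells, endogenous HPK1/SLP76, preincubated 60 min with compounds (10-point dilution), then stimulated with αCD3/αCD28 beads at 37 °C: 15 min for Jurkat, 30 min for EL-4. Ser376 pSLP76 in lysates read by AlphaLISA (Jurkat) or HTRF (EL-4); % inhibition and IC50 fitted.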

In assay [2] the target is full-length human HPK1 (MAP4K1) (Homo sapiens (Human), UniProt Q92918). Briefly: HPK1 Kinase Assay (Biochemical Assay), ADP-Glo. Particulars: GST-HPK1 3.2 nM, 10 μM ATP, MBP substrate, read-out: HPK1 enzymatic IC50. In a few lines: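 GST-tagged full-length human HPK1 was expressed in Sf21 cells and used at 3.2 nM in 50 mM HEPES pH 7.5, 10 mM MgCl2, 2 mM DTT, 12.5 mM O-glycerophosphate, 0.01% BSA and 0.02% Brij-35. It was preincubated 15 min with 10-point compound dilutions, and the reaction was started with a start mix of 10 μM ATP and 3.235 μM MBP. After 120 min, ADP was measured by ADP-Glo luminescence and IC50 derived.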
For orientation: In ADP-Glo the light output rises with the ADP produced.

The mark [3] stands for this setting: αCD3/αCD28 Dynabeads stimulated cells, pSLP76 (Ser376) detection; read-out: HPK1 pSLP76 IC50.
[4] abbreviates: read-out: HPK1 pSLP76 IC50; αCD3/αCD28 Dynabeads stimulated cells, pSLP76 (Ser376) detection.

Molecules are shown by their SMILES. Read-outs that look alike come from different tables or passages of the source.

HPK1 (SLP76 phosphorylation at Ser376 in Jurkat and EL-4 cells), sequence (Q92918 whole entry, looked up): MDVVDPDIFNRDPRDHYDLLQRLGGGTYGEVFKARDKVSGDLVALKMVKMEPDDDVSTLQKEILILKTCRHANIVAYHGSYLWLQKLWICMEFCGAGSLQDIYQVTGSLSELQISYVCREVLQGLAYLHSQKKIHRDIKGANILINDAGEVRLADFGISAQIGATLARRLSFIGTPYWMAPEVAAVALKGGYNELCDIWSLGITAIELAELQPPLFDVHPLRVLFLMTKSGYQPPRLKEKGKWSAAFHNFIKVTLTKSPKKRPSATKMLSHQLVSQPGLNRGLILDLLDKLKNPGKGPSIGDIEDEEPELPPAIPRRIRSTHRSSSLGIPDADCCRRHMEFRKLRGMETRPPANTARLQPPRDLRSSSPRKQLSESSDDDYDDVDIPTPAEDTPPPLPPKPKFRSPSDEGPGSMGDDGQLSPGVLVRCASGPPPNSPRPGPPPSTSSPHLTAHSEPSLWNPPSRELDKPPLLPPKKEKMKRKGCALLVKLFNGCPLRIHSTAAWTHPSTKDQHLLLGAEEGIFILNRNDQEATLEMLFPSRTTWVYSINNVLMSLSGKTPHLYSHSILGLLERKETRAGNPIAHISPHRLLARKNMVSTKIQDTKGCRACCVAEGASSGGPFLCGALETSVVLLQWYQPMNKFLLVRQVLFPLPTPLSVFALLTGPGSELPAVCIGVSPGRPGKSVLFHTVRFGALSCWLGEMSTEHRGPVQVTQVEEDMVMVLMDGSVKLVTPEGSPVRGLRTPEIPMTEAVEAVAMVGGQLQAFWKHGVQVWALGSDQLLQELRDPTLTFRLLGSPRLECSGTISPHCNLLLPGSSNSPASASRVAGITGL
full-length human HPK1 (MAP4K1), sequence (Q92918 whole entry): as the sequence (Q92918 whole entry, looked up) above

As to `Cc1c(N2CCc3cnc(Nc4ccc5c(c4)CNC5=O)nc3C2)cnc2c1NCCO2` [Example 85, 5-((7-(8-methyl-2,3-dihydro-1H-pyrido[2,3-b][1,4]oxazin-7-yl)-5,6,7,8-tetrahydropyrido[3,4-d]pyrimidin-2-yl)amino)isoindolin-1-one], the 50% inhibitory concentration (IC50) in assay [1] (setting [3]) was more than 1000 nM; in assay [2], less than 100 nM.
On to `CN1CCc2ncc(Nc3ncc4c(n3)CN(c3cnc5c(c3)NCCO5)CC4)cc2C1` [Example 87, 7-(2,3-dihydro-1H-pyrido[2,3-b][1,4]oxazin-7-yl)-N-(6-methyl-5,6,7,8-tetrahydro-1,6-naphthyridin-3-yl)-5,6,7,8-tetrahydropyrido[3,4-d]pyrimidin-2-amine], for which the IC50 in assay [1] (setting [3]) is more than 1000 nM; in assay [2] it was 100 to 1000 nM.
The matching figures for `Cc1c(N2CCc3cnc(Nc4ccc(OC[C@@H]5COCCO5)cc4)nc3C2)cnc2c1NCCO2` [Example 90, (S)—N-(4-((1,4-dioxan-2-yl)methoxy)phenyl)-7-(8-methyl-2,3-dihydro-1H-pyrido[2,3-b][1,4]oxazin-7-yl)-5,6,7,8-tetrahydropyrido[3,4-d]pyrimidin-2-amine]: 500 to 1000 nM and less than 100 nM.
On to `Cc1c(N2CCc3cnc(Nc4ccc(N5CCC(O)CC5)c(CC#N)c4)nc3C2)cnc2c1NCCO2` [Example 91, 2-(2-(4-hydroxypiperidin-1-yl)-5-((7-(8-methyl-2,3-dihydro-1H-pyrido[2,3-b][1,4]oxazin-7-yl)-5,6,7,8-tetrahydropyrido[3,4-d]pyrimidin-2-yl)amino)phenyl)acetonitrile], for which the IC50 was less than 500 nM in assay [1] (setting [3]) and less than 100 nM in assay [2].
For `Cc1c(N2CCc3cnc(Nc4ccc5c(c4)COC5)nc3C2)cnc2c1NCCO2` [Example 92, N-(1,3-dihydroisobenzofuran-5-yl)-7-(8-methyl-2,3-dihydro-1H-pyrido[2,3-b][1,4]oxazin-7-yl)-5,6,7,8-tetrahydropyrido[3,4-d]pyrimidin-2-amine], the values for the IC50 in assay [1] (setting [3]) and in assay [2] were 500 to 1000 nM and less than 100 nM, respectively.
On to `Cc1c(N2CCc3cnc(Nc4ccc5c(c4)C(C)(C)OC5)nc3C2)cnc2c1NCCO2` [Example 93, N-(3,3-dimethyl-1,3-dihydroisobenzofuran-5-yl)-7-(8-methyl-2,3-dihydro-1H-pyrido[2,3-b][1,4]oxazin-7-yl)-5,6,7,8-tetrahydropyrido[3,4-d]pyrimidin-2-amine], for which the values for the IC50 in assay [1] (setting [4]) and in assay [2] were less than 500 nM and less than 100 nM, respectively.
In the same order, the values of `Cc1c(N2CCc3cnc(Nc4ccc(OC5CCOCC5)cc4)nc3C2)cnc2c1NCCO2` [Example 94, 7-(8-methyl-2,3-dihydro-1H-pyrido[2,3-b][1,4]oxazin-7-yl)-N-(4-((tetrahydro-2H-pyran-4-yl)oxy)phenyl)-5,6,7,8-tetrahydropyrido[3,4-d]pyrimidin-2-amine] are 500 to 1000 nM and less than 100 nM.
In the same order, the values of `Cc1c(N2CCc3cnc(Nc4ccc5c(c4)CN(C)C5=O)nc3C2)cnc2c1NCCO2` [Example 96, 2-methyl-5-((7-(8-methyl-2,3-dihydro-1H-pyrido[2,3-b][1,4]oxazin-7-yl)-5,6,7,8-tetrahydropyrido[3,4-d]pyrimidin-2-yl)amino)isoindolin-1-one] are more than 1000 nM and less than 100 nM.
`Cc1c(N2CCc3cnc(Nc4ccc(OCCN5CCOCC5)cc4)nc3C2)cnc2c1NCCO2` [Example 97, 7-(8-methyl-2,3-dihydro-1H-pyrido[2,3-b][1,4]oxazin-7-yl)-N-(4-(2-morpholinoethoxy)phenyl)-5,6,7,8-tetrahydropyrido[3,4-d]pyrimidin-2-amine]: the IC50 is 500 to 1000 nM in assay [1] (setting [4]) and less than 100 nM in assay [2].
Take `COCCOc1ccc(Nc2ncc3c(n2)CN(c2cnc4c(c2C)NCCO4)CC3)cc1` [Example 98, N-(4-(2-methoxyethoxy)phenyl)-7-(8-methyl-2,3-dihydro-1H-pyrido[2,3-b][1,4]oxazin-7-yl)-5,6,7,8-tetrahydropyrido[3,4-d]pyrimidin-2-amine]: the IC50 is 500 to 1000 nM in assay [1] (setting [3]) and less than 100 nM in assay [2].
As to `Cc1c(N2CCc3cnc(Nc4ccc(CN5CCOCC5)cc4)nc3C2)cnc2c1NCCO2` [Example 99, 7-(8-methyl-2,3-dihydro-1H-pyrido[2,3-b][1,4]oxazin-7-yl)-N-(4-(morpholinomethyl)phenyl)-5,6,7,8-tetrahydropyrido[3,4-d]pyrimidin-2-amine], the half-inhibitory concentration (IC50) was 500 to 1000 nM in assay [1] (setting [3]) and less than 100 nM in assay [2].
Consider `Cc1c(N2CCc3cnc(Nc4ccc(C5CCN(C)CC5)cc4)nc3C2)cnc2c1NCCO2` [Example 100, 7-(8-methyl-2,3-dihydro-1H-pyrido[2,3-b][1,4]oxazin-7-yl)-N-(4-(1-methylpiperidin-4-yl)phenyl)-5,6,7,8-tetrahydropyrido[3,4-d]pyrimidin-2-amine], for which the IC50 in assay [1] (setting [3]) was 500 to 1000 nM; in assay [2], less than 100 nM.
In the case of `Cc1c(N2CCc3cnc(Nc4ccc(N5CCC(O)CC5)nc4)nc3C2)cnc2c1NCCO2` [Example 102, 1-(5-((7-(8-methyl-2,3-dihydro-1H-pyrido[2,3-b][1,4]oxazin-7-yl)-5,6,7,8-tetrahydropyrido[3,4-d]pyrimidin-2-yl)amino)pyridin-2-yl)piperidin-4-ol], the IC50 in assay [1] (setting [4]) was more than 1000 nM; in assay [2], less than 100 nM.
Regarding `Cc1c(N2CCc3cnc(Nc4ccc(N5CCC(OC(F)(F)F)CC5)cc4)nc3C2)cnc2c1NCCO2` [Example 103, 7-(8-methyl-2,3-dihydro-1H-pyrido[2,3-b][1,4]oxazin-7-yl)-N-(4-(4-(trifluoromethoxy)piperidin-1-yl)phenyl)-5,6,7,8-tetrahydropyrido[3,4-d]pyrimidin-2-amine], the figures for the IC50 in assay [1] (setting [4]) and in assay [2] were more than 1000 nM and less than 100 nM, respectively.
Consider `Cc1c(N2CCc3cnc(Nc4ccc5c(c4)CN(C)C5)nc3C2)cnc2c1NCCO2` [Example 104, 7-(8-methyl-2,3-dihydro-1H-pyrido[2,3-b][1,4]oxazin-7-yl)-N-(2-methylisoindolin-5-yl)-5,6,7,8-tetrahydropyrido[3,4-d]pyrimidin-2-amine], for which the IC50 in assay [1] (setting [3]) is less than 500 nM; in assay [2], less than 100 nM.
For the compound `Cc1c(N2CCc3cnc(Nc4cnc5c(c4)CN(CC(F)F)CC5)nc3C2)cnc2c1NCCO2` [Example 105, N-(6-(2,2-difluoroethyl)-5,6,7,8-tetrahydro-1,6-naphthyridin-3-yl)-7-(8-methyl-2,3-dihydro-1H-pyrido[2,3-b][1,4]oxazin-7-yl)-5,6,7,8-tetrahydropyrido[3,4-d]pyrimidin-2-amine], the IC50 in assay [1] (setting [3]) was 500 to 1000 nM; in assay [2], less than 100 nM.
As for `Cc1c(N2CCc3cnc(Nc4cnc5c(c4)CN(CC(F)(F)F)CC5)nc3C2)cnc2c1NCCO2` [Example 106, 7-(8-methyl-2,3-dihydro-1H-pyrido[2,3-b][1,4]oxazin-7-yl)-N-(6-(2,2,2-trifluoroethyl)-5,6,7,8-tetrahydro-1,6-naphthyridin-3-yl)-5,6,7,8-tetrahydropyrido[3,4-d]pyrimidin-2-amine], the IC50 was more than 1000 nM in assay [1] (setting [3]) and less than 100 nM in assay [2].
Consider `Cc1c(N2CCc3cnc(Nc4ccc(C5CCN(C)CC5)c(CO)c4)nc3C2)cnc2c1NCCO2` [Example 107, (5-((7-(8-methyl-2,3-dihydro-1H-pyrido[2,3-b][1,4]oxazin-7-yl)-5,6,7,8-tetrahydropyrido[3,4-d]pyrimidin-2-yl)amino)-2-(1-methylpiperidin-4-yl)phenyl)methanol], for which the results for the IC50 in assay [1] (setting [3]) and in assay [2] were 500 to 1000 nM and less than 100 nM, respectively.
For the compound `Cc1c(N2CCc3cnc(Nc4cnc5c(c4)CNCC5)nc3C2)cnc2c1NCCO2` [Example 108, 7-(8-methyl-2,3-dihydro-1H-pyrido[2,3-b][1,4]oxazin-7-yl)-N-(5,6,7,8-tetrahydro-1,6-naphthyridin-3-yl)-5,6,7,8-tetrahydropyrido[3,4-d]pyrimidin-2-amine], the IC50 is 500 to 1000 nM in assay [1] (setting [3]) and less than 100 nM in assay [2].
Take `Cc1c(N2CCc3cnc(Nc4cnc5c(c4)CN(C)CC5)cc3C2)cnc2c1NCCO2` [Example 109, 6-methyl-N-(6-(8-methyl-2,3-dihydro-1H-pyrido[2,3-b][1,4]oxazin-7-yl)-5,6,7,8-tetrahydro-2,6-naphthyridin-3-yl)-5,6,7,8-tetrahydro-1,6-naphthyridin-3-amine]: the IC50 in assay [1] (setting [3]) was more than 1000 nM; in assay [2], 100 to 1000 nM.
With `Cc1c(N2CCc3cnc(Nc4cnc5c(c4)CC(O)CC5)nc3C2)cnc2c1NCCO2` (centres unmarked) [Example 110, 3-((7-(8-methyl-2,3-dihydro-1H-pyrido[2,3-b][1,4]oxazin-7-yl)-5,6,7,8-tetrahydropyrido[3,4-d]pyrimidin-2-yl)amino)-5,6,7,8-tetrahydroquinolin-6-ol], the IC50 in assay [1] (setting [3]) is 500 to 1000 nM; in assay [2] it was less than 100 nM.
As for `Cc1c(N2CCc3cnc(Nc4ccc(N5CCC(O)CC5)cc4)nc3C2)cnc2c1NCCO2` [Example 111, 1-(4-((7-(8-methyl-2,3-dihydro-1H-pyrido[2,3-b][1,4]oxazin-7-yl)-5,6,7,8-tetrahydropyrido[3,4-d]pyrimidin-2-yl)amino)phenyl)piperidin-4-ol], the IC50 was 500 to 1000 nM in assay [1] (setting [3]) and less than 100 nM in assay [2].
